Test results as given in ChEMBL document CHEMBL3045124, “Molecular docking and in silico studies on analogues of 2-methylheptyl isonicotinate with DHDPS enzyme of Mycobacterium tuberculosis” (2013).
In brackets after ≈: the same amount, converted by molar mass.

Columns and labels:
Type in all cases: functional
Shigella sp. = experiment: Antibacterial activity against Shigella sp. after 24 hr by agar cup assay
Klebsiella sp. = experiment: Antibacterial activity against Klebsiella sp. after 24 hr by agar cup assay
Escherichia coli [1] = experiment: Antibacterial activity against Escherichia coli after 24 hr by agar cup assay
Arthrobacter sp. = experiment: Antibacterial activity against Arthrobacter sp. after 24 hr by agar cup assay
Proteus mirabilis = experiment: Antibacterial activity against Proteus mirabilis after 24 hr by agar cup assay
Bacillus subtilis [2] = experiment: Antibacterial activity against Bacillus subtilis after 24 hr by agar cup assay
Proteus vulgaris = experiment: Antimicrobial activity against Proteus vulgaris
Escherichia coli [3] = experiment: Antibacterial activity against Escherichia coli
[4] = tested on: Mycobacterium tuberculosis; experiment: Antitubercular activity against Mycobacterium tuberculosis
Bacillus subtilis [5] = experiment: Antibacterial activity against Bacillus subtilis

SMILES | MIC (Shigella sp.) [µg/mL] | MIC (Klebsiella sp.) [µg/mL] | MIC (Escherichia coli [1]) [µg/mL] | MIC (Arthrobacter sp.) [µg/mL] | MIC (Proteus mirabilis) [µg/mL] | MIC (Bacillus subtilis [2]) [µg/mL] | MIC (Proteus vulgaris) [µg/mL] | MIC (Escherichia coli [3]) [µg/mL] | MIC [4] [µg/mL] | MIC (Bacillus subtilis [5]) [µg/mL]
CCCCCC(C)COC(=O)c1ccncc1 (centres undefined) [2-METHYL HEPTYL ISONICOTINATE] | 60 (≈ 255 µM) | 50 (≈ 212 µM) | 70 (≈ 297 µM) | 40 (≈ 170 µM) | 40 (≈ 170 µM) | 50 (≈ 212 µM) |  |  |  | 
CCCCC[C@H](C)COC(=O)c1ccncc1 [(S)-2-METHYLHEPTYL ISONICOTINATE] |  |  |  |  |  |  | 14 (≈ 59.5 µM) | 20 (≈ 85 µM) | 14 (≈ 59.5 µM) | 20 (≈ 85 µM)
NNC(=O)c1ccncc1 [ISONIAZID] | 300 (≈ 2190 µM) | 250 (≈ 1820 µM) | 2520 (≈ 18400 µM) | 150 (≈ 1090 µM) | 200 (≈ 1460 µM) | 150 (≈ 1090 µM) |  |  |  | 
CCCCC[C@@H](C)COC(=O)c1ccncc1 [ISONICOTINIC ACID 2-METHYL-HEPTYL ESTER] |  |  |  |  |  |  | 6 (≈ 25.5 µM) | 16 (≈ 68 µM) | 10 (≈ 42.5 µM) | 16 (≈ 68 µM)
CCCCOC(=O)c1ccncc1 [ISONICOTINIC ACID BUTYL ESTER] |  |  |  |  |  |  | 500 (≈ 2790 µM) | 600 (≈ 3350 µM) | 280 (≈ 1560 µM) | 600 (≈ 3350 µM)
CCCCCCCOC(=O)c1ccncc1 [ISONICOTINIC ACID HEPTYL ESTER] |  |  |  |  |  |  | 16 (≈ 72.3 µM) | 24 (≈ 108 µM) | 16 (≈ 72.3 µM) | 24 (≈ 108 µM)
CCCCCCOC(=O)c1ccncc1 [ISONICOTINIC ACID HEXYL ESTER] |  |  |  |  |  |  | 36 (≈ 174 µM) | 50 (≈ 241 µM) | 24 (≈ 116 µM) | 50 (≈ 241 µM)
CCCCCCCCCCCCCCCCCCOC(=O)c1ccncc1 [ISONICOTINIC ACID OCTADECYL ESTER] |  |  |  |  |  |  | 560 (≈ 1490 µM) | 600 (≈ 1600 µM) | 320 (≈ 852 µM) | 600 (≈ 1600 µM)
CCCCCCCCOC(=O)c1ccncc1 [ISONICOTINIC ACID OCTYL ESTER] |  |  |  |  |  |  | 6 (≈ 25.5 µM) | 16 (≈ 68 µM) | 8 (≈ 34 µM) | 16 (≈ 68 µM)
CCCCCOC(=O)c1ccncc1 [ISONICOTINIC ACID PENTYL ESTER] |  |  |  |  |  |  | 14 (≈ 72.4 µM) | 20 (≈ 103 µM) | 10 (≈ 51.7 µM) | 20 (≈ 103 µM)
